Like-named read-outs stand apart in the source and are kept apart here.
Legend:
[1] = system: MC65 cells; test: Neuroprotection assay in MC65 cells (−TC, MTT); settings: for EC50: read-out: EC50 for neuroprotection of MC65 cells
Protocol: MC65 cells were washed twice with PBS, resuspended in Opti-MEM, and seeded in 96-well plates (4×10^4 cells/well). Indicated compounds were then added, and cells were incubated at 37° C. under +TC or −TC conditions for 72 h. Then, 10 μL of MTT (5 mg/mL in PBS) were added and the cells were incubated for another 4 h. Cell medium was then removed, and the remaining formazan crystals produced by the cellular reduction of MTT were dissolved in DMSO. Absorbance at 570 nm was immediately recorded using a FlexStation® 3 plate reader (Molecular Devices, CA).

[2] = system: MC65 cells; test: Cytotoxicity in MC65 cells under normal growth conditions (+TC), MTT; assay type: cell-based; settings: 72 h
Protocol: FIG. 7A-D. Effects on viability of TRO19622, Mito-TEMPO and 7 in MC65 cells. A. MC65 cells were treated with Mito-TEMPO or TRO-19622 at indicated concentrations under normal growth conditions (+TC) for 72 h. Cell viability was assessed by MTT assay. Data were expressed as mean percentage viability (n=3) with parallel +TC cultures set at 100% viability. Error bars represent SEM. B. MC65 cells were treated with Mito-TEMPO at indicated concentrations under −TC conditions for 72 h. Cell viability was assessed by MTT assay. Data were expressed as mean percentage viability (n=3) with parallel +TC cultures set at 100% viability. C. MC65 cells were treated with TRO-19622 at indicated concentrations under −TC conditions for 72 h. Cell viability was assessed by MTT assay. Data were expressed as mean percentage viability (n=3) with parallel +TC cultures set at 100% viability. D. MC65 cells were treated with 7 or Mito-TEMPO at indicated concentrations for 2 h before addition of rotenone for 48 h. Cell viability was assessed by MTT assay. Data were expressed as mean percentage viability (n=3) with parallel +TC cultures set at 100% viability. […]

[3] = system: HT22 cells; test: Hydrogen peroxide toxicity assay in HT22 cells; assay type: cell-based, mouse; settings: 24 h
Protocol: HT22 cells were seeded in 96-well plates (4×10^3 cells/well) in growth medium and incubated for 24 h at 37° C. The medium was removed and compounds were added at the indicated concentrations in fresh growth medium, and the cells were incubated for another 1 h. H2O2 was then added at a final concentration of 500 μM, and the plates were then incubated for 24 h. Cell viability was assessed by MTT assay as previously described. Values were expressed as a percentage relative to the negative (H2O2-free) control.

[4] = background statement; cited from earlier work
[5] = target: T1, Aβ42 (Homo sapiens, UniProt P05067); test: Thioflavin T assay of Aβ42 fibril formation; assay type: biochemical; settings: 10 μM compound, Aβ42 25 μm, 48 h, ThT; read-out: inhibition of the formation of Aβ42 fibrils
T1 construct: purchased American Peptide, Inc. (Sunnyvale, Calif.)
Protocol: Briefly, 1 μL of each compound solution in DMSO (0.01 μM to 100 μM) was added to corresponding wells in a 96-well plate. Each concentration was prepared in independent triplicates and a solvent control was included. To each well, 9 μL of 25 μM Aβ42 in PBS (pH 7.4) was added, and then plates were incubated in dark at room temperature for 48 h. Next, 200 μL of a 5 μM ThT in 50 mM glycine solution (pH 8.0) was added to each well.

[6] = system: MC65 cells; test: Rotenone protection assay in MC65 cells; assay type: cell-based; settings: 10 μM, 48 h
Protocol: The medium was removed and compounds were added at the indicated concentrations in fresh growth medium, and the cells were incubated for another 2 h. Rotenone was then added at a final concentration of 10 μM, and the plates were then incubated for 48 h. Cell viability was assessed by MTT assay.

[7] = in vitro; settings: for Papp: PAMPA
Protocol: In the same assay, 10 commercial drugs with known CNS penetration were also tested as positive controls, and their experimental values were compared to reported values (Table 1).

[8] = system: intracellular oxidative stress in MC65 cells; test: ROS production assay in MC65 cells (DCFH-DA); assay type: cell-based; settings: −TC, 48 h, DCFH-DA 25 μM, read-out: IC50 for suppression of intracellular oxidative stress
Protocol: Cells were harvested, washed twice with cold PBS, then suspended in PBS and incubated with DCFH-DA (25 μM) in dark for 1 h. Fluorescence was analyzed by flow cytometry using a Millipore Guava® easyCyte flow cytometer.

[9] = system: amyloid-β oligomers (AβOs) in MC65 cells; test: Western blot (6E10) of AβOs production in MC65 cells; assay type: cell-based; settings: MC65 cells after removal of TC, 6E10 antibody
Protocol: MC65 cells (4×10^5 cells/mL) were treated with indicated compounds for 30 h and then were lysed by sonication in a Tricine buffer solution and boiled for 5 min. Protein samples were collected from the supernatant after centrifugation of the samples at 12,800×g for 5 min, and then quantified using the Bradford method. Equal amounts of protein (20.0 μg) were separated by SDS-PAGE on a gel (Bio-Rad) and transferred onto a PVDF membrane (Bio-Rad). The blots were blocked with 5% milk in TBS-Tween 20 (0.1%) solution at room temperature for 1 h and then probed with the 6E10 antibody overnight at 4° C. The blots were washed twice in TB S-Tween 20 for 15 min, and then incubated with a 1:1000 dilution of horseradish peroxidase-conjugated secondary antibody in a 5% milk/PBS-Tween 20 solution at room temperature for 1 h. After washing twice in TBS-Tween 20 for 15 min, the proteins were visualized by a Western Blot Chemiluminescence Reagent (Thermo Fischer Scientific, Waltham, Mass.). The blots were also probed with antibodies against α-tubulin to ensure equal loading of proteins.

T1 sequence (P05067 672-713 limits assumed): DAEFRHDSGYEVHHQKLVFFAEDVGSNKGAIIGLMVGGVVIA

SMILES: CC1(C)CC(NC(=O)C[P+](c2ccccc2)(c2ccccc2)c2ccccc2)CC(C)(C)N1[O] [Mito-TEMPO, reference compound]
- protection from −TC induced cytotoxicity ([1]; indicated concentrations, maximum 10 μM, −TC, 72 h): dose-dependently protected
- toxic effects in MC65 cells under +TC ([2]; up to 10 μM): did not show toxic effects

SMILES: OO [Compound H2O2, H2O2]
- HT22 cell death ([3]; 500 μM): ~58%

SMILES: COc1ccc2[nH]cc(CCNC(=O)CC(=O)C=Cc3ccoc3)c2c1 [AM5]
- protection compared to −TC control ([1]; 0.3 μM, −TC, 72 h): ~48%

SMILES: COc1ccc2[nH]cc(CCNC(=O)CC(=O)C=Cc3ccco3)c2c1 [AM4]
- neuroprotection of MC65 cells from −TC induced cell death ([1]; 0.3 μM, −TC, 72 h, MTT): did not show neuroprotection

SMILES: COc1ccc2[nH]cc(CCNC(C)=O)c2c1 [Compound 2, Melatonin]
- neuroprotection of MC65 cells from −TC induced cell death ([1]; 0.3 μM, −TC, 72 h, MTT): no neuroprotection
- half-life [4]: < 30 min

SMILES: COc1cccc(C=CC(=O)CC(=O)NCCc2c[nH]c3ccc(OC)cc23)c1 [Compound 4]
- neuroprotection of MC65 cells from −TC induced cell death ([1]; 0.3 μM, −TC, 72 h, MTT): complete loss of neuroprotection

SMILES: CC(C)CCC[C@@H](C)[C@H]1CC[C@H]2[C@@H]3CCC4=CC(=NO)CC[C@]4(C)[C@H]3CC[C@]12C [TRO-19622, reference compound]
- protection from −TC induced cytotoxicity ([1]; up to 25 μM, −TC, 72 h): did not show significant protection
- cytotoxicity in MC65 cells under +TC ([2]; up to 25 μM): did not show cytotoxicity

SMILES: COc1cc(/C=C/C(=O)CC(=O)/C=C/c2ccc(O)c(OC)c2)ccc1O [Compound 1, Curcumin]
- neuroprotection of MC65 cells from −TC induced cell death ([1]; 0.3 μM, −TC, 72 h, MTT): no neuroprotection
- neuroprotection at much higher concentrations (data not shown) ([1]; 3 and 10 μM, −TC): moderate neuroprotection
- inhibition at 10 µM [5]: 27.3%

SMILES: COc1ccc2[nH]cc(CCNC(=O)CC(=O)C=Cc3ccc(N(C)C)cc3)c2c1 [AM14]
- protection compared to −TC control ([1]; 0.3 μM, −TC, 72 h): ~0.20%

SMILES: C=C(C)[C@H]1Cc2c(ccc3c2O[C@@H]2COc4cc(OC)c(OC)cc4[C@@H]2C3=O)O1 [rotenone, reference compound]
- cell death of MC65 cells [6]: 75.6%

SMILES: CN(C)CCCN1c2ccccc2Sc2ccccc21 [Promazine, reference compound]
- Papp [7]: 25.1 ± 1.4 ×10⁻⁶ cm/s

SMILES: COc1ccc2[nH]cc(CCNC(=O)CC(=O)/C=C/c3ccc(O)cc3)c2c1 [Compound 5]
- neuroprotection of MC65 cells from −TC induced cell death ([1]; 0.3 μM, −TC, 72 h, MTT): significant neuroprotection
- EC50 ([1]; MC65, 72 h): 0.0231 ± 0.00523 µM
- IC50 [8]: ~0.063 µM
- effect on the production of AβOs (tetramers, pentamers, heptamers) [9]: dose-dependently suppressed
- Papp [7]: 5.9 ± 0.4 ×10⁻⁶ cm/s

SMILES: CN1C(C(=O)Nc2ccccn2)=C(O)c2ccccc2S1(=O)=O [Piroxicam, reference compound]
- Papp [7]: 6 ± 0.3 ×10⁻⁶ cm/s

SMILES: COc1ccc2[nH]cc(CCNC(=O)CC(=O)C=Cc3ccc4c(c3)OCO4)c2c1 [ZSJ-II-126]
- neuroprotection of MC65 cells from −TC induced cell death ([1]; 0.3 μM, −TC, 72 h, MTT): diminished protection

SMILES: COc1ccc2[nH]cc(CCNC(=O)CC(=O)C=Cc3ccncc3)c2c1 [AM6]
- protection compared to −TC control ([1]; 0.3 μM, −TC, 72 h): ~33%

SMILES: Cc1c(C)c2c(c(C)c1O)CCC(C)(C(=O)O)O2 (centres unmarked) [Trolox, 6-hydroxy-2,5,7,8-tetramethyl chroman-2-carboxylic acid]
- protection from H2O2-induced cytotoxicity ([3]; 300 μM, H2O2 500 μM): full rescue

SMILES: COc1ccc2[nH]cc(CCNC(=O)CC(=O)/C=C/c3ccc(O)c(OC)c3)c2c1 [Compound 3]
- increase in cell viability ([1]; 0.3 μM, −TC, 72 h): ~61%
- EC50 ([1]; −TC conditions, 72 h, MTT): 0.134 ± 0.0045 µM
- Permeability Pe (exp.) ([7]; PBS:EtOH (70:30), mean ± SD of 3 independent experiments): 6.5 ± 0.6 10^−6 cm s^−1
- Prediction of penetration in the CNS ([7]; from Pe (exp.) and correlation with reported values): CNS− (compounds with Pe<8.1×10^−6 cm s^−1 will have low BBB permeability by passive diffusion)

From patent US9738605B2, “Hybrid compounds of curcumin and melatonin as neuroprotectants for neurodegenerative disorders” (VIRGINIA COMMONWEALTH UNIVERSITY, priority 2013, dated 2017)
